# From patent US8551958B2, “Galactosylated pro-drugs of non-steroidal anti-inflammatories with improved pharmacokinetic characteristics and reduced toxicity of the starting drug” (Stewart Italia Srl, priority 2008, dated 2013)
# “Also recorded” adds a separate entry of the source.
# Key:
# [1] = Chemical stability of the pro-drug (phosphate buffer pH 7.4; HCl 0.1 N pH 1), HPLC; type: physicochemical; conditions: in the dark
# Method: For the stability study, the solutions of pro-drug were prepared by dissolving an aliquot of Ketogal in a phosphate buffer at pH 7.4, or else in a solution of HCl 0.1 N (pH 1), as regards chemical stability, or else in a plasma specimen, for enzymatic stability. The solutions were kept in the dark, at a temperature of 37° C., for 24 hours. After each hour an aliquot of specimen was taken. In the case of plasma, said aliquot was previously extracted with acetonitrile (1:2), “vortexed” and centrifuged at 3000 r.p.m. for 10 min. The supernatant was taken and used for analysis at HPLC with diode detector. The half-lives for chemical stability and enzymatic stability were calculated by quantizing, in time, the percentage of pro-drug that remained in solution. For the chromatographic separations, a 1090L HPLC (Hewlett-Packard, Palo Alto, USA) was used, coupled to a diode detector HP 1040A. A Phenomenex Luna C18 (250×4.6 mm, 5 μm) column was used. The wavelength used was 313 nm. The mobile phase was constituted by acetonitrile and an aqueous solution of phosphoric acid […] (pH 3) in the ratio of 68:32. The flow was 1 mL/min, with an injection volume of 20 μl. All the reagents and the solvents used were of analytical degree. The distilled and deionized water was purified by means of a Milli Q system (Millipore). The retention times of the compounds were: ketorolac: 6.7 min; Ketogal: 3.8 min. As internal standard tolmetin was used (9.3 min). The straight line of calibration for quantification of the compounds was constructed using standard solutions with concentrations of between 0.1 and 100 μg/ml. The linearity was obtained with a coefficient of regression (R^2) of approximately 0.998.
# For the study of the stability, the solutions of pro-drug were prepared by dissolving an aliquot of Flugal in a phosphate buffer at pH 7.4, as regards chemical stability, or else in a plasma specimen, for enzymatic stability. The solutions were kept in the dark, at a temperature of 37° C., for 24 hours. After each hour an aliquot of specimen was taken. In the case of the plasma said amount was previously extracted with acetonitrile (1:2), “vortexed”, and centrifuged at 3000 r.p.m. for 10 min. The supernatant was taken and used for analysis at HPLC with diode detector. The half-lives for the chemical stability and enzymatic stability were calculated by quantizing, in time, the percentage of pro-drug that remained in solution. A 1090L HPLC (Hewlett-Packard, Palo Alto, USA) coupled to a diode detector HP 1040A was used for the chromatographic separations. The column used was a Supelcosil LC-18, 250×4.6 mm, particle size […]. The volume injected was […] and the flow of 1 mL/min. The mobile phase was constituted by a mixture of aqueous CH3CN/H3PO4 1 mM (pH 3) [32:68]. For the quantitative determination reading was made at 250 nm. The retention times of the various compounds involved in the analysis were: for Flugal 6 min and for flurbiprofen 11 min. All the reagents and the solvents used were of analytical degree. The distilled and deionized water was purified by means of a Milli Q system (Millipore). The straight line of calibration for the quantification of the compounds was constructed using standard solutions with concentrations of between 0.1 and 100 μg/ml. Linearity was obtained with a coefficient of regression (R^2) of approximately 0.998. From the results of said analysis (illustrated in Table 3) it emerges that the pro-drug Flugal has a good chemical stability and a good susceptibility to enzymatic hydrolysis.
# Chemical stability was assessed also at pH 1.0 in a solution of HCl 0.1N as described.
# For the stability study, the solutions of pro-drug were prepared by dissolving an aliquot of Okigal in a phosphate buffer at pH 7.4, or else in a solution of HCl 0.1 N (pH 1), as regards chemical stability, or else in a plasma specimen, for enzymatic stability. The solutions were kept in the dark, at a temperature of 37° C., for 24 hours. […]
# [2] = Pharmacokinetic studies (plasma, stomach, kidney, liver); type: in vivo, Wistar rats
# Method: The pharmacokinetic profile of Ketogal and of ketorolac was evaluated in Wistar rats by measuring the concentration of the two compounds in the plasma, in the stomach, in the kidney, and in the liver. The rats received ketorolac (0.100 mg/kg) or Ketogal (0.163 mg/kg) by oral route and were sacrificed after 1 h, 2 h, 4 h, and 6 h from administration. The various specimens were treated with acetonitrile, and the suspension was “vortexed” and centrifuged at 3000 r.p.m. for 10 min. The organic phase was injected in the same HPLC system used for the stability assays.
# [3] = test system: writhing induced by acetic acid; test: Writhing test induced by acetic acid; type: in vivo, mice
# Method: The analgesic activity was studied using the “writhing test” using acetic acid and using magnesium sulphate. To the mice there was administered by intraperitoneal route 1 mL of solution at 1% of acetic acid, and the number of writhing events was evaluated for 20 min, after 5 min from administration of the solution of acetic acid. Writhing is defined as a contraction of the abdominal muscles accompanied by elongation of the body and of the rear legs. Ketorolac and Ketogal were administered by oral route 60 min prior to administration of the solution of acetic acid. The analgesic effect is expressed in number of writhing events as compared to the control.
# [4] = test system: writhing induced by magnesium sulphate; test: Writhing induced by magnesium sulphate (visceral pain); type: in vivo, mouse; conditions: ketorolac 0.01 to 10 mg/kg, Ketogal in equimolar dose; 1 hour before magnesium sulphate 120 mg/kg
# Method: In order to determine whether ketorolac and Ketogal are able to inhibit visceral pain, the effects of these compounds on “writhing” induced by magnesium sulphate were tested. Magnesium sulphate induces a reversible response when injected by intraperitoneal route in the mouse. The administration of 120 mg/kg of magnesium sulphate induces an average of 6±0.9 episodes of “writhing” in the mouse (n=6).
# TNF-alpha = test: Western blot in liver lysates, TNF-alpha; type: in vivo, mice; conditions: ketogal 16.3 mg/Kg oral for 3, 5 and 7 days
# Method: (§1) Animals were sacrificed and then liver, stomach and kidney were collected in glass tubes and analysed histologically and biochemically.
# Liver samples were fixed in 10% buffered formalin and embedded in paraffin, sliced, and stained with hematoxylin & eosin (H&E) for assessment of liver pathology. […] To confirm histological data, western blot analysis for TNF-alpha, IL-6 and malonyldialdehyde assay were then performed in liver lysates.
# COX-1 = test: Western blot, stomach, COX-1 protein expression; type: in vivo, mice; conditions: ketorolac 10 mg/Kg, ketogal 16.3 mg/Kg, oral, 3, 5 and 7 days; versus control stomachs
# Source text: as §1
# PPAR-gamma = test: Western blot, stomach, PPAR-gamma protein expression; type: in vivo, mice; conditions: ketorolac 10 mg/Kg, ketogal 16.3 mg/Kg, oral, 3, 5 and 7 days
# Source text: as §1
structure (smiles),measurement,setting,value
"O=C(c1ccccc1)c1ccc2n1CC[C@@H]2C(=O)OCC1O[C@H](O)C(O)C(O)[C@H]1O (mixture of isomers) [Ketogal, ketorolac-D-galactos-6′-yl ester]",pH 7.4 T½,"[1]; phosphate buffer at pH 7.4, 37° C.",>4 hours
same,pH 1 T½,"[1]; solution of HCl 0.1 N (pH 1), 37° C.",2.1 hours
same,Oral availability,[2]; compared with ketorolac,better oral availability than ketorolac; also recorded: increased the oral availability of ketorolac
same,Behaviour of the pro-drug in the stomach,"[2]; oral, Ketogal 0.163 mg/kg","hydrolyses progressively, releasing ketorolac"
same,Presence of the pro-drug in plasma,"[2]; oral, Ketogal 0.163 mg/kg",the pro-drug was not present
same,Presence of the pro-drug in the kidney,"[2]; oral, Ketogal 0.163 mg/kg",no traces of the pro-drug
same,Presence of the pro-drug in the liver,"[2]; oral, Ketogal 0.163 mg/kg",Ketogal reappeared
same,Concentration of ketorolac in the liver after Ketogal versus drug alone,"[2]; oral, Ketogal 0.163 mg/kg versus ketorolac 0.100 mg/kg",always higher following upon administration of Ketogal
same,Plasma levels of ketorolac after administration of Ketogal versus ketorolac as such,"[2]; oral, Ketogal 0.163 mg/kg, ketorolac 0.100 mg/kg, 1 h, 2 h, 4 h, 6 h",higher than the ones observed following upon administration of the drug as such
same,Analgesic activity compared with ketorolac,"[3]; Ketogal 0.163 mg/kg versus ketorolac 0.1 mg/kg, oral and subcutaneous administration",better analgesic and anti-inflammatory activity than ketorolac
same,Analgesic effect (number of writhing events compared to control),"[3]; oral, 60 min prior to acetic acid, ketorolac 0.01-10 mg/kg, Ketogal 0.0163-16.3 mg/kg",dose-dependent analgesic effect of higher than 0.163 mg/kg
same,Inhibition of writhing induced by magnesium sulphate,[4],able to inhibit this response in a dose-dependent way
same,TNF-alpha level in liver,TNF-alpha,no different compared to control mice
same,Gastric COX-1 protein expression,COX-1,not inhibited
same,Gastric PPAR-gamma protein expression,PPAR-gamma,not inhibited
